Tests used:
Assay in all cases: kinase panel
Assay type in all cases: biochemical
CLK2(h) = CLK2(h) (Homo sapiens, UniProt P49760)
How it was run: (§1)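 Three compounds in the series were profiled against a panel of 231 kinases, and activity is reported as % inhibition. For one compound, a subset of 98 kinases was selected on the basis of its structural similarity to another series member.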

MEK1(h) = MEK1(h) (Homo sapiens, UniProt Q02750)
How it was run: as §1

Haspin(h) = target: T1, Haspin(h) (Homo sapiens, UniProt Q8TF76)
T1 sequence (Q8TF76 1-798): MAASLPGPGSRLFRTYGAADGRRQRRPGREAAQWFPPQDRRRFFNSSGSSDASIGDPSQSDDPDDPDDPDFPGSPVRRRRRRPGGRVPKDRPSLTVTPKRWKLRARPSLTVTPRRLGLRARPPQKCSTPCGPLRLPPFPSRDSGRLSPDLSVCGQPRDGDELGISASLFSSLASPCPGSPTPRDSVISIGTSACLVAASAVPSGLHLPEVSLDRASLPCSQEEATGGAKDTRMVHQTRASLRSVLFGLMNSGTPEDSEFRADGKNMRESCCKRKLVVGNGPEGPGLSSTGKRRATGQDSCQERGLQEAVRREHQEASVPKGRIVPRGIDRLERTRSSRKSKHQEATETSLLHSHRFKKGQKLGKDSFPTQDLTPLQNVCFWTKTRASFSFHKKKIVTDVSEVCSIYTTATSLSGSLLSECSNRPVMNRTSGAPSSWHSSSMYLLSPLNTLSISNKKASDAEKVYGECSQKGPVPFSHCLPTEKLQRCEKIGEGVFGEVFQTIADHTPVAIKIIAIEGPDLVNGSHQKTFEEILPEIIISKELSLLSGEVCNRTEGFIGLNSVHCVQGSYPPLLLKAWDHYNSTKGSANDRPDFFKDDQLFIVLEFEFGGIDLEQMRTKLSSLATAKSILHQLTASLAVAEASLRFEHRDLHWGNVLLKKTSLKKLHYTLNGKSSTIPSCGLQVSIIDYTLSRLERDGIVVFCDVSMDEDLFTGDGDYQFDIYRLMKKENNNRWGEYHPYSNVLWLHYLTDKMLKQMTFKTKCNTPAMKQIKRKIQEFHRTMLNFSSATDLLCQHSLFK
How it was run: as §1

Pim-1(h) = Pim-1(h) (Homo sapiens, UniProt P11309)
How it was run: as §1

IR(h) = IR(h) (Homo sapiens, UniProt P06213)
How it was run: as §1

DAPK1(h) = DAPK1(h) (Homo sapiens, UniProt P53355)
How it was run: as §1

PKCη(h) = PKCη(h) (Homo sapiens, UniProt P24723)
How it was run: as §1

Aurora-A(h) = target: T2, Aurora-A(h) (Homo sapiens, UniProt O14965)
T2 sequence (O14965 1-403): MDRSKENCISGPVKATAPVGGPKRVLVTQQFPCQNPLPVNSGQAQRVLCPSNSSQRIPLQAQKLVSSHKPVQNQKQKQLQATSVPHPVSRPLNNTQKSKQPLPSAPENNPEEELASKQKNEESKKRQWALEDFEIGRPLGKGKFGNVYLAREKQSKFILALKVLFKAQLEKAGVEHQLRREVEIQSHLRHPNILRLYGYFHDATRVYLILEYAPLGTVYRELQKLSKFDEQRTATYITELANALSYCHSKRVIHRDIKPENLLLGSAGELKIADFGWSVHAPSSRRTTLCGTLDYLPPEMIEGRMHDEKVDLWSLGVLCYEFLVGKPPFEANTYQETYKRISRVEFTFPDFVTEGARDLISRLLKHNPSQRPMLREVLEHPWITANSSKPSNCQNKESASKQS
How it was run: as §1

PKCμ(h) = target: T3, PKCμ(h) (Homo sapiens, UniProt Q15139)
T3 sequence (Q15139 1-912): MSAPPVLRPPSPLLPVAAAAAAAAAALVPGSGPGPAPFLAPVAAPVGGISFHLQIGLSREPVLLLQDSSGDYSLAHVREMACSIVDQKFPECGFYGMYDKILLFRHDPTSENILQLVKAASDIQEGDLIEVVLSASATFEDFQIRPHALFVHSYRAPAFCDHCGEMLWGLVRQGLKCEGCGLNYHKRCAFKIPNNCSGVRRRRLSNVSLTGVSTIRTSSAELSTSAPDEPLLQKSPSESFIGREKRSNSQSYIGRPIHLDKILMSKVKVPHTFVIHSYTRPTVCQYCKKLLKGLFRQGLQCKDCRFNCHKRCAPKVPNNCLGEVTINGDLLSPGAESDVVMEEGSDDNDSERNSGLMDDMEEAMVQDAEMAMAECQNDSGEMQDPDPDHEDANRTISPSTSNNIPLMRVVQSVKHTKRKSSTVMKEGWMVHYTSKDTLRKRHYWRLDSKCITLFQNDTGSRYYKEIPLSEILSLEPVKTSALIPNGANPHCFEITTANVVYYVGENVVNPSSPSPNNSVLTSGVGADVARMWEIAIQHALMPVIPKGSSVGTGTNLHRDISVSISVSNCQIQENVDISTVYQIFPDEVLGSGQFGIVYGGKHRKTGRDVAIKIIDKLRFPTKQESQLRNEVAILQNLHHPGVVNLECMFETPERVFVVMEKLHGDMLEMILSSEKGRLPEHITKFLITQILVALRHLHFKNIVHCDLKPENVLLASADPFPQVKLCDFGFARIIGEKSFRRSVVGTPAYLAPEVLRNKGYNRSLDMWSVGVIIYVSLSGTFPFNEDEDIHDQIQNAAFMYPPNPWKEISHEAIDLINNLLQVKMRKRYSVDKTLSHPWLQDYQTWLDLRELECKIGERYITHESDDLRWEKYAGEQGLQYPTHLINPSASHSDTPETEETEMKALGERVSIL
How it was run: as §1

CDK6/cyclinD3(h) = CDK6/cyclinD3(h) (Homo sapiens, UniProt Q00534)
How it was run: as §1

CDK2/cyclinA(h) = CDK2/cyclinA(h) (Homo sapiens, UniProt P24941)
How it was run: as §1

Flt1(h) = Flt1(h) (Homo sapiens, UniProt P17948)
How it was run: as §1

Sequence of Flt1(h) (P17948 27-1338): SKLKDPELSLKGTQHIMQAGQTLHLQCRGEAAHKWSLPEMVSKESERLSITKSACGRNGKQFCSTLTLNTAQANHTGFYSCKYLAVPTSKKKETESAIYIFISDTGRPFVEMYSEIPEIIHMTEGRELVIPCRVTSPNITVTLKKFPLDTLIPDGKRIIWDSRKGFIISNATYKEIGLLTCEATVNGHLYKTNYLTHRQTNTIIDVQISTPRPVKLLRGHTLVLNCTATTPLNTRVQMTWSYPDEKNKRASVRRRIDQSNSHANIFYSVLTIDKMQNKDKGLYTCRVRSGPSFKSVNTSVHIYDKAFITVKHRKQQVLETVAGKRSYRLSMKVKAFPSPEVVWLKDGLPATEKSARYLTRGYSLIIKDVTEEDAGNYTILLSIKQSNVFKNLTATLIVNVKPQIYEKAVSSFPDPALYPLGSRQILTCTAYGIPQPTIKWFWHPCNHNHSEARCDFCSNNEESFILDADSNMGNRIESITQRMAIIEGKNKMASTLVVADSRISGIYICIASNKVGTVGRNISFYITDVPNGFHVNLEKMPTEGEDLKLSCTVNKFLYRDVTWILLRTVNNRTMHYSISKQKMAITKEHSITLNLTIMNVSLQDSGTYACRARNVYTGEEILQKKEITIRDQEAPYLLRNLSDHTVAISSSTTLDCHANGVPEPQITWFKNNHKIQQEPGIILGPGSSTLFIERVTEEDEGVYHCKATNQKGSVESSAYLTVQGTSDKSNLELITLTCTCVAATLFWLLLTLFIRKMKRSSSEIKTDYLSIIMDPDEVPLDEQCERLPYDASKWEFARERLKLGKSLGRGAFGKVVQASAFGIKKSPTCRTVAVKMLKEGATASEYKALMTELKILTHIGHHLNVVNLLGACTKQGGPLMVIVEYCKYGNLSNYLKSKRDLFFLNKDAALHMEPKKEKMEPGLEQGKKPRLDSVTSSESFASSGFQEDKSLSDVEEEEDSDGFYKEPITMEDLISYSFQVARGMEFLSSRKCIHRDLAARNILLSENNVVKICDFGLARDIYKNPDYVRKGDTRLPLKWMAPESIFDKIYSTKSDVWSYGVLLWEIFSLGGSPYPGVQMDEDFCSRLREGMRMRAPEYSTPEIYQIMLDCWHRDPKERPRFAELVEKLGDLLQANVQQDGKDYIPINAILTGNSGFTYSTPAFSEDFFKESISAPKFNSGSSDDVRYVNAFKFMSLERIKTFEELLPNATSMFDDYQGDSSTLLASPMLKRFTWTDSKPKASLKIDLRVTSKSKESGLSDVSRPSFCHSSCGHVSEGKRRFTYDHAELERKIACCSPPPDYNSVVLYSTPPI
Sequence of DAPK1(h) (P53355 whole entry): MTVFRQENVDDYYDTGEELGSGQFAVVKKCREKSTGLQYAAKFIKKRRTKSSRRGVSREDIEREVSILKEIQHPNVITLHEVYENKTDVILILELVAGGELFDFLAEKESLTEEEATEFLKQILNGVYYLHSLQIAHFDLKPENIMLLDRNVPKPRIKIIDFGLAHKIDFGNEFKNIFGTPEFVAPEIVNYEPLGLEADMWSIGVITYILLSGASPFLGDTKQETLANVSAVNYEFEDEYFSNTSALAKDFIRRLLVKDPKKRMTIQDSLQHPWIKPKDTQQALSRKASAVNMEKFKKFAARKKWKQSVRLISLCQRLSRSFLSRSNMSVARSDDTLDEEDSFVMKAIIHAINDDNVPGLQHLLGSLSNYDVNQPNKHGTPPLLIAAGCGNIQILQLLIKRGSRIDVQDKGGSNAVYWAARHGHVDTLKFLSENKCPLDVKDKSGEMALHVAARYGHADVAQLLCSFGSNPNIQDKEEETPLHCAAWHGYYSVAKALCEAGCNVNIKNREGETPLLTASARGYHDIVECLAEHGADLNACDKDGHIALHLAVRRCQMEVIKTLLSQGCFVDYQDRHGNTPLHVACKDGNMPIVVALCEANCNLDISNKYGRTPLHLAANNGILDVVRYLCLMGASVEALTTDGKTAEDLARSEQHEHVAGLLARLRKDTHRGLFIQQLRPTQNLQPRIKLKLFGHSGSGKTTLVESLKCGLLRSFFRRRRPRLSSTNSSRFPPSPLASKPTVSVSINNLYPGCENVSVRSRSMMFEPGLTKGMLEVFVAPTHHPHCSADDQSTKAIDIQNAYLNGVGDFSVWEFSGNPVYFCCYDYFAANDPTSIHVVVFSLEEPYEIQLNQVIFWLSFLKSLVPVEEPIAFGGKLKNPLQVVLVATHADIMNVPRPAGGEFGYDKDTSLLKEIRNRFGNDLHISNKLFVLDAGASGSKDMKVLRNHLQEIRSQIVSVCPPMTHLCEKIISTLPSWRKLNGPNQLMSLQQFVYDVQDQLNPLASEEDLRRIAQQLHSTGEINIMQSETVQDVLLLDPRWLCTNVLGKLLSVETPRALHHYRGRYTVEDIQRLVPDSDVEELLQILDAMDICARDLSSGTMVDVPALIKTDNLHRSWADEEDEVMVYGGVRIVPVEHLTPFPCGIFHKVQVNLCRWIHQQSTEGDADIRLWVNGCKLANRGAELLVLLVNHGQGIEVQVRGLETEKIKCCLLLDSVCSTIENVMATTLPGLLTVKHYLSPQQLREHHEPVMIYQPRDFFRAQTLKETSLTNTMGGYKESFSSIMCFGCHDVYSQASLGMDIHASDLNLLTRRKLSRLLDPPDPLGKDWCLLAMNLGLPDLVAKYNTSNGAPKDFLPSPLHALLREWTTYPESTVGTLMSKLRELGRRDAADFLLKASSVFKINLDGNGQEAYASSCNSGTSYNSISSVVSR
Sequence of Pim-1(h) (P11309 whole entry): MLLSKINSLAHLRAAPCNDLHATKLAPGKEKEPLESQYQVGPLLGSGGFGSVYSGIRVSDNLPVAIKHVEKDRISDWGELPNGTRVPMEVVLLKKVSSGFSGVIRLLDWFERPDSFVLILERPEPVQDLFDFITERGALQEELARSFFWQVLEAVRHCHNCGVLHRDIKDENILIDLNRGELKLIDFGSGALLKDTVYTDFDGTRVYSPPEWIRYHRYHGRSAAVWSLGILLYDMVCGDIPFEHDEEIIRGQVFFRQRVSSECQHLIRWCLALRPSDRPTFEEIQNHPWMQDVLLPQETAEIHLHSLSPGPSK
Sequence of IR(h) (P06213 28-1382): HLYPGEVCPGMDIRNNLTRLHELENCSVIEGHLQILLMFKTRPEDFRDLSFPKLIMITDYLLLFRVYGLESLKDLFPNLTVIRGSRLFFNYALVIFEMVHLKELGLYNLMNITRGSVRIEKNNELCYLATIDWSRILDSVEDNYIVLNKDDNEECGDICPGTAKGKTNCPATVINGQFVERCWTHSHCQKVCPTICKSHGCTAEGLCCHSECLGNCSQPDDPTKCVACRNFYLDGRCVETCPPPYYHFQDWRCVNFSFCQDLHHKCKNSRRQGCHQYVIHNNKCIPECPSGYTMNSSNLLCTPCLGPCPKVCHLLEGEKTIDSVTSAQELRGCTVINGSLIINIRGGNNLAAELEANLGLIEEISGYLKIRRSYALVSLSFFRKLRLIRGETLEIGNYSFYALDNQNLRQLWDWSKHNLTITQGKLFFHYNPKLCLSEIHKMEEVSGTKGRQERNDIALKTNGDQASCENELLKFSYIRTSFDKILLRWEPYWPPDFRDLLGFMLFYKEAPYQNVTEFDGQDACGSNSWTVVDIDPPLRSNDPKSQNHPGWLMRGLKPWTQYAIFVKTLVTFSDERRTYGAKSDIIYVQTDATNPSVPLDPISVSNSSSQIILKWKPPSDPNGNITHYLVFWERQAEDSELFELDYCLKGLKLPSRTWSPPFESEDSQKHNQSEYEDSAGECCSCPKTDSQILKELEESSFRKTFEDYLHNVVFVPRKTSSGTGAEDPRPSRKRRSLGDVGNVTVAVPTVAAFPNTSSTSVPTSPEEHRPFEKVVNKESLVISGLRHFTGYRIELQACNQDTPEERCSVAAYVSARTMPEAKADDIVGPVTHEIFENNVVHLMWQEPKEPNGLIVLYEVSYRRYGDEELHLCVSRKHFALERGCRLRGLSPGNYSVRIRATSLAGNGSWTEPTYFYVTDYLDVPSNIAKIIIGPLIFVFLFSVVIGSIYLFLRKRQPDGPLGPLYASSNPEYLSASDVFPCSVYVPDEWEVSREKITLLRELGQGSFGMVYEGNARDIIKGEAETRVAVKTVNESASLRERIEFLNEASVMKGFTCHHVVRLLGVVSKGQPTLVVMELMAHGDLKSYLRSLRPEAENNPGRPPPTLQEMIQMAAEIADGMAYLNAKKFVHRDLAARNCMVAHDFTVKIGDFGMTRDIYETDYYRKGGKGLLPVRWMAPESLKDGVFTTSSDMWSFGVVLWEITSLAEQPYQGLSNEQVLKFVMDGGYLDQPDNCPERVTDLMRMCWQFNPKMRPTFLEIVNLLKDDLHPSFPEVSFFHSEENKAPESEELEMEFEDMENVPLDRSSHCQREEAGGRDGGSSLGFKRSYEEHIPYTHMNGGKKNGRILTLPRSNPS
Sequence of CLK2(h) (P49760 whole entry): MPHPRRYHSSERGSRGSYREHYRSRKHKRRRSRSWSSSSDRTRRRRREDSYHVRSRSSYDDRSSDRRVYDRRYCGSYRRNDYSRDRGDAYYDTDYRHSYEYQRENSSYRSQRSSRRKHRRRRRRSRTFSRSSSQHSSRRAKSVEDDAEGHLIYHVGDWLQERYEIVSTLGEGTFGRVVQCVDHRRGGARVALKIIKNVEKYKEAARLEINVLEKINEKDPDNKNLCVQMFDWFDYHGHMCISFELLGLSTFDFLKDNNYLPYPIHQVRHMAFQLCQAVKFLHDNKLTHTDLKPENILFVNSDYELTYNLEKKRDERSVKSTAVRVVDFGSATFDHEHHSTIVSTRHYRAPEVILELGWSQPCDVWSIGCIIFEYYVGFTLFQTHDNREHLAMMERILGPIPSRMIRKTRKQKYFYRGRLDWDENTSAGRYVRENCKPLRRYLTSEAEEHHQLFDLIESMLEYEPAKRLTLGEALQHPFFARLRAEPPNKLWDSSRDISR

SMILES	inhibition at 1 µM (CLK2(h)) [%]	inhibition at 1 µM (MEK1(h)) [%]	inhibition at 1 µM (Haspin(h)) [%]	inhibition at 1 µM (Pim-1(h)) [%]	inhibition at 1 µM (IR(h)) [%]	inhibition at 1 µM (DAPK1(h)) [%]	inhibition at 1 µM (PKCη(h)) [%]	inhibition at 1 µM (Aurora-A(h)) [%]	inhibition at 1 µM (PKCμ(h)) [%]	inhibition at 1 µM (CDK6/cyclinD3(h)) [%]	inhibition at 1 µM (CDK2/cyclinA(h)) [%]	inhibition at 1 µM (Flt1(h)) [%]
Nc1n[nH]c2ccc(-c3ccnc4[nH]c(-c5ccccc5)cc34)cc12 [Compound 4]	97	8	101	23	50	-1	2	88	21	82	99	94
Nc1n[nH]c2ccc(-c3ccnc4[nH]c(-c5cccc(OCc6ccccc6)c5)cc34)cc12 [Compound 5r [SU1261]]	80	0	94	-1	4	-15	2	52	18	17	61	58
Nc1n[nH]c2ccc(-c3ccnc4[nH]c(-c5ccnc(OCc6ccccc6)c5)cc34)cc12 [Compound 6g [SU1349]]	68	8	92	8	-1	4	-1	36	-9	-13	37	6

Source: PMC11314561, “Design and Synthesis of Novel Aminoindazole-pyrrolo[2,3-b]pyridine Inhibitors of IKKα That Selectively Perturb Cellular Non-Canonical NF-κB Signalling” (Molecules, 2024)
